The text below walks through data of patent US20230295068A1, “NOVEL CYCLOALKENONE COMPOUND OR SALT THEREOF” (TAIHO PHARMACEUTICAL CO., LTD., priority 2020, published 2023).

This data set has as its system ND3 neuronal cell line. The data set can be described thus: Measurement of nerve growth stimulation effect (neurite bearing assay, neurite length assay, number of cells). It counts as cell-based. As to conditions: relative cell number, DMSO well = 1; for viability at 1 µM / viability at 3 µM / viability at 5 µM / viability at 10 µM / viability at 30 µM / viability at 100 µM: 6 hours; for Number of cells: ND3 cells, 6 h. As to the method:
To evaluate the nerve growth stimulation effect, neurite bearing assay (proportion of neurite-bearing cells) and neurite length assay (neurite length) were analyzed with reference to the method of Topalli et al. (Brain Research 1030 (2004), pp. 116-124).
An ND3 neuronal cell line (European Collection of Authenticated Cell Cultures) was seeded in a DMEM medium containing 10% fetal bovine serum (0.6×10^4 cells/1 mL) in a 24-well plate. 24 hours later, the medium of seeded cells was removed, and a solution in which the compound of the present disclosure that was sequentially diluted in dimethyl sulfoxide (DMSO) was adjusted in DIEM containing 0.1% bovine serum albumin so that the DMSO final concentration was 0.1%, was added to cells (evaluation performed in duplicate). After six hours from the addition, the proportion of neurite-bearing cells (the number of cells having a neurite longer than the diameter of the cell body/number of total cells), and the neurite length per cell were analyzed. The number of total cells, proportion of neurite-bearing cells, and neurite length per cell were analyzed using a MetaMorph Neurite Outgrowth Application Module (Molecular Devices Japan K.K.). The number of cells was defined as the relative cell number, taking the number of cells per well containing DMSO as 1. The relative activity of each compound when the maximum activity of 3-(15-methoxypentadecyl)-2,4,4-trimethylcyclohexa-2-en-1-one (compound 24) in each test was defined as 1 is shown (Table 9). For the compounds for which multiple tests were conducted, the average value was shown. Data with a number of cells of 0.5 or more was also used. Accordingly, if the number of cells was less than 0.5, the neurite length per cell and the proportion of neurite-bearing cells were defined as “-”.

Structures are written as SMILES.

As for `COCCCCCCCCCCCCCCC1=C(C)C(=O)CCC1(C)C` [Compound 21, 3-(14-methoxytetradecyl)-2,4,4-trimethylcyclohex-2-en-1-one], the viability (commonly a read-out of living cells in per cent, often relative to untreated cells) at 1 µM came out at 104%; the viability at 3 µM stood at 111%; the viability at 5 µM is 102%; the viability at 10 µM came to 103%. Moreover, the viability at 30 µM was determined as 82% and the viability at 100 µM stood at 96%.
`COCCCCCCCCCCCCCCCC1=C(C(C)C)C(=O)CCC1(C)C` [Compound 62, 2-isopropyl-3-(15-methoxypentadecyl)-4,4-dimethylcyclohex-2-en-1-one] had a Number of cells (1 μM compound) of 0.92; a Number of cells (3 μM compound) of 0.89; a Number of cells (5 μM compound) of 0.83; a Number of cells (10 μM compound) of 0.78; a Number of cells (30 μM compound) of 0.91; a Number of cells (100 μM compound) of 0.91.
As to `CC1=C(CCCCCCCCCCCCCCC#N)C(C)(C)CCC1=O` [Compound 34, 15-(2,6,6-trimethyl-3-oxocyclohex-1-en-1-yl)pentadecanitrile], the viability at 1 µM came to 106%, the viability at 3 µM was 101%, the viability at 5 µM was found to be 96% and the viability at 10 µM turned out to be 98%. Besides, the viability at 30 µM was 98% and the viability at 100 µM was 97%.
For `CCOCCCCCCCCCCCCCCCCC1=C(C)C(=O)CCC1(C)C` [Compound 30, 3-(16-ethoxyhexadecyl)-2,4,4-trimethylcyclohex-2-en-1-one], the viability at 1 µM was determined as 88%, the viability at 3 µM was 91%, the viability at 5 µM is 83% and the viability at 10 µM is 87%. Also, the viability at 30 µM stood at 95% and the viability at 100 µM worked out at 98%.
For `COCCCCCCCCCCCCCCCC1=C(C)CCCC1(C)C` [Compound 64, 2-(15-methoxypentadecyl)-1,3,3-trimethylcyclohex-1-ene], the Number of cells came to 0.80 (1 μM compound); 0.93 (3 μM compound); 0.96 (5 μM compound); 0.88 (10 μM compound); 0.96 (30 μM compound); 0.53 (100 μM compound).
Take `CC1=C(CCCCCCCCCCCCCO)C(C)(C)CCC1=O` [Compound 2, 3-(13-hydroxytridecyl)-2,4,4-trimethylcyclohex-2-en-1-one, reference compound]: the viability at 1 µM stood at 113%, the viability at 3 µM was found to be 102%, the viability at 5 µM was determined as 96% and the viability at 10 µM was determined as 96%. Also, the viability at 30 µM is 19% and the viability at 100 µM worked out at 9%.
In the case of `CCOCCCCCCCCCCCCCCC1=C(C)C(=O)CCC1(C)C` [Compound 22, 3-(14-ethoxytetradecyl)-2,4,4-trimethylcyclohex-2-en-1-one], the viability at 1 µM stood at 114%, the viability at 3 µM came to 103%, the viability at 5 µM was found to be 94% and the viability at 10 µM came to 103%. Moreover, the viability at 30 µM worked out at 99% and the viability at 100 µM worked out at 97%.
As to `CC1=C(CCCCCCCCCCCCCCOC(C)C)C(C)(C)CCC1=O` [Compound 23, 3-(14-isopropoxytetradecyl)-2,4,4-trimethylcyclohex-2-en-1-one], the viability at 1 µM turned out to be 103%, the viability at 3 µM stood at 112%, the viability at 5 µM was 98% and the viability at 10 µM was found to be 95%. Besides, the viability at 30 µM amounted to 98% and the viability at 100 µM is 102%.
On to `[2H]C([2H])(CCCCCCCCCCCCCCC1=C(C)C(=O)CCC1(C)C)OC` [Compound 28, 3-(15-methoxypentadecyl-15,15-d2)-2,4,4-trimethylcyclohex-2-en-1-one], for which the viability at 1 µM amounted to 92%, the viability at 3 µM amounted to 86%, the viability at 5 µM is 71% and the viability at 10 µM amounted to 68%. For the same molecule, the viability at 30 µM is 77% and the viability at 100 µM stood at 86%.
Take `CNC(=O)CCCCCCCCCCCCCCC1=C(C)C(=O)CCC1(C)C` [Compound 33, N-methyl-15-(2,6,6-trimethyl-3-oxocyclohex-1-en-1-yl)pentadecanamide]: the viability at 1 µM turned out to be 92%, the viability at 3 µM came to 90%, the viability at 5 µM was 83% and the viability at 10 µM worked out at 86%. In addition, the viability at 30 µM worked out at 91% and the viability at 100 µM worked out at 80%.
`CC1=C(CCCCCCCCCCCCCCCOc2ccccc2)C(C)(C)CCC1=O` [Compound 51, 3-(15-phenoxypentadecyl)-2,4,4-trimethylcyclohex-2-en-1-one]: the viability at 1 µM was found to be 107%, the viability at 3 µM was found to be 103%, the viability at 5 µM is 93% and the viability at 10 µM was found to be 93%. Besides, the viability at 30 µM was determined as 96% and the viability at 100 µM is 94%.
Take `COCCCCCCCCCCCCCCCC1=C(C)C(O)CCC1(C)C` (stereo not drawn) [Compound 65, 3-(15-methoxypentadecyl)-2,4,4-trimethylcyclohex-2-en-1-ol]: the Number of cells turned out to be 1.05 (1 μM compound); 1.09 (3 μM compound); 0.86 (5 μM compound); 0.87 (10 μM compound); 1.05 (30 μM compound); 1.09 (100 μM compound).
Consider `CCOCCCCCCCCCCCCC1=C(C)C(=O)CCC1(C)C` [Compound 12, 3-(12-ethoxydodecyl)-2,4,4-trimethylcyclohex-2-en-1-one], for which the viability at 1 µM amounted to 96%, the viability at 3 µM is 90%, the viability at 5 µM worked out at 77% and the viability at 10 µM was found to be 69%. The viability at 30 µM came to 11% and the viability at 100 µM is 3%.
With `CCCCOCCCCCCCCCCCCC1=C(C)C(=O)CCC1(C)C` [Compound 15, 3-(12-butoxydodecyl)-2,4,4-trimethylcyclohex-2-en-1-one], the viability at 1 µM worked out at 93%, the viability at 3 µM worked out at 100%, the viability at 5 µM was determined as 95% and the viability at 10 µM was 88%. The viability at 30 µM was determined as 101% and the viability at 100 µM came to 92%.
As for `COCCCCCCCCCCCCCCCC1=CC(=O)CCC1` [Compound 37, 3-(15-methoxypentadecyl)cyclohex-2-en-1-one], the viability at 1 µM is 99%, the viability at 3 µM came out at 102%, the viability at 5 µM worked out at 84% and the viability at 10 µM was 89%. Moreover, the viability at 30 µM amounted to 107% and the viability at 100 µM turned out to be 97%.
Take `COCCCCCCCCCCCCCCCC1=CC(=O)CCC12CC2` [Compound 43, 4-(15-methoxypentadecyl)spiro[2,5]oct-4-en-6-one]: the viability at 1 µM was found to be 97%, the viability at 3 µM was determined as 97%, the viability at 5 µM turned out to be 85% and the viability at 10 µM came out at 86%. In addition, the viability at 30 µM is 96% and the viability at 100 µM amounted to 101%.
Consider `CC1=C(CCCCCCCCCCCCCCCO)CCCC1=O` [Compound 7, 3-(15-hydroxypentadecyl)-2-methylcyclohex-2-en-1-one, reference compound], for which the viability at 1 µM was 100%, the viability at 3 µM came to 100%, the viability at 5 µM turned out to be 87% and the viability at 10 µM amounted to 86%. Moreover, the viability at 30 µM was found to be 17% and the viability at 100 µM is 19%.
For `CNC(=O)OCCCCCCCCCCCCCCCC1=C(C)C(=O)CCC1(C)C` [Compound 55, 15-(2,6,6-trimethyl-3-oxocyclohex-1-en-1-yl)pentadecylmethylcarbamate], the viability at 1 µM worked out at 105%, the viability at 3 µM was 102%, the viability at 5 µM turned out to be 85% and the viability at 10 µM stood at 85%. The viability at 30 µM was 69% and the viability at 100 µM came to 25%.
Consider `CCOC(=O)OCCCCCCCCCCCCCCCC1=C(C)C(=O)CCC1(C)C` [Compound 57, ethyl (15-(2,6,6-trimethyl-3-oxocyclohex-1-en-1-yl)pentadecyl) carbonate], for which the viability at 1 µM is 96%, the viability at 3 µM came out at 93%, the viability at 5 µM was determined as 86% and the viability at 10 µM came out at 90%. Also, the viability at 30 µM came to 97% and the viability at 100 µM was found to be 100%.
